Assay results from US20250194593A1, “PESTICIDAL COMPOSITIONS COMPRISING PENTANAL AND USES THEREOF” (MIGAL GALILEE RESEARCH INSTITUTE LTD., priority 2022, published 2025).

Experiments:
[1] = tested on: pathogen related decay (spoilage) of fruits (pears, strawberries and mandarins); assay: decay of fruits exposed to pentanal and stored; assay type: in vivo; conditions: 10 to 30 ppm pentanal; stored in a cold room and/or at 20° C.
Protocol: Furthermore, various fruits (e.g. pears, strawberries and mandarins) have been exposed to between 10 and 30 ppm of pentanal (e.g. in a form of vapors, or by contacting thereof with an appropriate amount of any one of the composition of the invention). Upon exposure, the treated fruits have been stored for different time periods (in a cold room and/or at 20° C.). Subsequently, the decay of treated fruits has been examined and compared to untreated fruits.

[2] = tested on: Botrytis cinerea; assay: rot development on inoculated pears after cold storage; assay type: in vivo; conditions: pentanal vapors 18 ppm; 2 months of cold storage (0° C.)
Protocol: (§1) FIGS. 3A-3B are bar graphs representing the development of rots (in mm) on pears that were inoculated with Penicillium expansum (3A) and Botrytis cinera (3B) spores. Pears were inoculated with different concentrations of Penicillium expansum spores: 10^3 spores (A); 10^4 spores (B); 10^5 spores (C). The diameter of rots (in mm) was assessed after 2 months of cold storage (at 0° C.). The graphs represent untreated pears versus pears treated by pentanal vapors (18 ppm).
(§2) The decay was measured after 2 months of cold storage (0° C.).

[3] = tested on: Penicillium expansum; assay: as above; assay type: in vivo; conditions: pentanal vapors 18 ppm; 10^3-10^5 spores; 2 months of cold storage (0° C.)
Protocol: as §1, §2

[4] = tested on: Penicillium expansum and/or Botrytis cinerea; assay: storage shelf-life of inoculated fruit and vegetables exposed to pentanal vapors; assay type: in vivo; conditions: strawberries
From the text: Furthermore, the inventors tested the storage shelf-life of various inoculated fruit and vegetables species, such as: apples, pears, strawberries, lichi, cucumbers, citrus fruits, grapes under similar storage conditions upon exposure thereof to pentanal vapors. The fruits have been inoculated with Penicillium expansum and/or Botrytis cinerea spores and exposed to pentanal vapors at a concentration ranging between 30 and 100 ppm during the cold storage. […] The exact preservative effective amount of pentanal vapors varies dependent on the specific fruit specie, for example strawberries require higher concentration of pentanal, about 80-100 ppm.

[5] = tested on: Penicillium expansum spores; assay: effect of different volatiles on viability of spores (CFU); assay type: cell-based; conditions: 0.9, 1.8 or 18 μL/L
Protocol: FIGS. 4A-4B are bar graphs representing antifungal activity of different VOCs. FIG. 4A represents the effect of Butyl acetate (B) Hexyl acetate (H), Isoamyl acetate (I), Trans-2-Hexanal (T), and Pentanal (P) and Control (C) at the concentrations of 1.8 μL/L or 18 μL/L on Penicillium expansum spores (CFU). Different letters represent significant differences between treatments (p<0.05). A-C-1.8 μL/L, a-c-18 μL/L 1.8. FIG. 4B represents the effect of different volatiles Hexyl acetate (H), Trans-2-Hexanal (T), Pentanal (P), Hexanal (He) and Control (C) at the concentrations of 0.9 μL/L, 1.8 μL/L or 18 μL/L on Penicillium expansum spores (CFU). Different letters represent significant differences between treatments (p<0.05). A-C-1.8 μL/L, a-c-18 μL/L 1.8.
The inventors additionally examined the effect of different volatiles on the viability of Penicillium expansum spores. The volatiles tested were: Butyl acetate, Hexyl acetate, Isoamyl acetate, […] and they were compared to Pentanal at two different concentrations (1.8 μL/L or 18 μL/L). Furthermore, the inventors examined lower concentration (0.9 μL/L) for the following VOCs hexanal, trans-hexenal, and hexyl acetate on Penicillium expansum spores (CFU).

[6] = tested on: Penicillium expansum spores; assay: spores incubated on PDA plates, then exposed to pentanal vapors for 24 hr; assay type: cell-based
Protocol: The effect of incubation period (hours) of Penicillium expansum spores on PDA plates followed by exposure to pentanal vapors (1.8 ppm, or 18 ppm) for 24 hr was examined.

[7] = pentanal release rate into the ambient air from compositions; assay type: physicochemical; conditions: release of 50% of the initial pentanal amount into the ambient air
From the text: The inventors further calculated pentanal release rate into the ambient air from various compositions of the invention and compared the release rate to neat pentanal (liquid), as a negative control. Table 1 presents the time period required for release of 50% of the initial pentanal amount.

[8] = tested on: Penicillium expansum; assay: electron microscopy of mycelium and spores treated with pentanal; assay type: cell-based; conditions: pentanal treated vs untreated
Protocol: FIGS. 2A-2C are micrographs presenting the effect of pentanal vapors (lower panel) on the mycelium (2A), conidia (2B), and spores (2C) of Penicillium expansum, as compared to untreated counterparts (upper panel). White arrows represent damage of Penicillium expansum upon exposure to pentanal vapors. Mycelium and spores of Penicillium expansum treated and untreated with pentanal were analyzed using electronic microscope. Untreated mycelium and the spores of Penicillium expansum developed normally (FIG. 2, upper panel) while the Pentanal treated samples were impaired, the round structure of the mycelium was altered and along the mycelium damaged sites were observed (FIG. 2A). The conjugation sites of the spores in conidiophore were also damaged (FIG. 2B), and ruptures were visible on the spores' surface (FIG. 2C).

[9] = tested on: Botrytis cinerea; assay: Petri dish with PDA inoculated with fungi spores exposed to pentanal vapors; assay type: cell-based; conditions: pentanal vapors about 18 ppm; vs untreated plates
From the text: (§3) FIGS. 1A-1C are images representing inhibition of various plant pathogens Alternaria alternata (1A), Botrytis cinerea (1B), and Penicillium expansum (1C) by pentanal vapors at a concentration of 18 ppm. The inventors tested anti-fungal efficiency of pentanal vapors by exposing various fruits pathogens (e.g., Alternaria, Botrytis, and Penicillium species) to pentanal vapors at a concentration of about 18 ppm. Fruit (in vivo) or Petri dish with PDA (in vitro) inoculated with fungi spores (10^3-10^6 spores/ml) were exposed to pentanal vapors at concentrations of 10-100 ppm for 24 hr. after which the samples were aired and incubated until the pathogens developed in the untreated samples which served as control. The results of this experiment are represented in FIG. 1.

[10] = tested on: Penicillium expansum; assay: as above; assay type: cell-based; conditions: pentanal vapors about 18 ppm; vs untreated plates
From the text: as §3

[11] = tested on: Alternaria alternata; assay: as above; assay type: cell-based; conditions: pentanal vapors about 18 ppm; vs untreated plates
From the text: as §3

Time (min) until 50% release [7]: 5 min
Compound: CCCCC=O [Pentanal]
decay of treated fruits compared to untreated fruits [1]: prevention pathogen related decay (spoilage)
decay development in inoculated pears [2]: significantly delayed decay development
decay development in inoculated pears [3]: significantly delayed decay development
shelf-life of inoculated fruits and vegetables vs non-treated controls ([4]; pentanal vapors 30 to 100 ppm during cold storage, apples, pears, lichi, cucumbers, citrus fruits, grapes): significantly prolong the shelf-life
preservative effective amount of pentanal vapors [4]: 80-100 ppm
anti-fungal activity (CFU) compared to other VOCs [5]: significantly enhanced anti-fungal activity
fungal colonies 6 days after exposure ([6]; pentanal vapors 1.8 ppm for 24 hr): no fungal colonies were detected
fungal colonies 6 days after exposure ([6]; pentanal vapors 18 ppm for 24 hr): no fungal colonies were detected
damage to mycelium, conidiophore and spores (electron microscope) [8]: physical damage
fungal growth in petri dish [9]: completely prevented fungal growth
fungal growth in petri dish [10]: completely prevented fungal growth
fungal growth in petri dish [11]: completely prevented fungal growth
